Measured values taken from the NIST ThermoML archive (doi:10.1016/j.jct.2018.08.007).
Values joined by “and” are separate entries in the source; they are usually repeats but may differ in a detail not shown here. Equal entries are not always repeated.

Experiment: mn = molality of the nth substance listed, in mol/kg
Conditions: 100 kPa, Liquid; for viscosity: Capillary tube (Ostwald / Ubbelohde) method; for mass density: Vibrating tube method

CN(CC(=O)O)C(=N)N [N-amidinosarcasine] + O
Conditions	mass density, 293.15 K [kg/m3]	mass density, 298.15 K [kg/m3]	mass density, 303.15 K [kg/m3]	mass density, 308.15 K [kg/m3]	mass density, 313.15 K	viscosity, 293.15 K [mPa·s]	viscosity, 298.15 K [mPa·s]	viscosity, 303.15 K [mPa·s]	viscosity, 308.15 K [mPa·s]	viscosity, 313.15 K [mPa·s]
m1 = 0.02	–	–	–	–	–	1.008	0.895	0.804	0.723	0.658
m1 = 0.03	–	–	–	–	–	1.011	0.898	0.806	0.727	0.659
m1 = 0.0306	999.51	998.33	996.9	995.23	993.35 kg/m3	–	–	–	–	–
m1 = 0.04	999.9	998.72	997.28	995.6	993.7 kg/m3	1.014	0.901	0.808	0.729	0.662
m1 = 0.0406	999.93	998.74	997.31	995.63	993.73 kg/m3	–	–	–	–	–
m1 = 0.0477	1000.23	999.04	997.6	995.91	994 kg/m3	–	–	–	–	–
m1 = 0.05	1000.33	999.13	997.69	996	994.09 kg/m3	1.017	0.904	0.81	0.731	0.664
m1 = 0.0548	1000.53	999.33	997.89	996.2	994.28 kg/m3	–	–	–	–	–
m1 = 0.0564	1000.59	999.4	997.96	996.26	994.35 kg/m3	–	–	–	–	–
m1 = 0.0597	1000.73	999.53	998.09	996.39	994.47 kg/m3 and 994.48 kg/m3	1.019	0.907	0.811	0.733	0.665
m1 = 0.0675	1001.06	999.86	998.41	996.71	994.79 kg/m3	–	–	–	–	–
m1 = 0.0701	1001.17	999.96	998.52	996.82	994.89 kg/m3	1.024	0.91	0.817	0.737	0.669
m1 = 0.0727	1001.27	1000.07	998.63	996.92	995 kg/m3	–	–	–	–	–
m1 = 0.0782	1001.5	1000.29	998.85	997.15	995.22 kg/m3	–	–	–	–	–
m1 = 0.08	1001.58	1000.37	998.93	997.22	995.3 kg/m3	1.028	0.913	0.818	0.738	0.67
m1 = 0.0898	1001.98	1000.77	999.34	997.63	995.71 kg/m3	–	–	–	–	–
m1 = 0.09	1001.99	1000.78	999.34	997.64	995.71 kg/m3	1.033	0.917	0.823	0.74	0.672
m1 = 0.0926	1002.1	1000.89	999.45	997.74	995.82 kg/m3	–	–	–	–	–
m1 = 0.1038	1002.56	1001.35	999.92	998.21	996.3 kg/m3	–	–	–	–	–
m1 = 0.1113	1002.87	1001.65	1000.23	998.53	996.62 kg/m3	–	–	–	–	–
m1 = 0.1207	1003.25	1002.04	1000.62	998.93	997.03 kg/m3	–	–	–	–	–
m1 = 0.1287	1003.58	1002.36	1000.96	999.26	997.39 kg/m3	–	–	–	–	–
m1 = 0.1326	1003.74	1002.52	1001.12	999.43	997.56 kg/m3	–	–	–	–	–

CN1CC(=O)NC1=N [creatinine] + O
Conditions	mass density, 293.15 K [kg/m3]	mass density, 298.15 K [kg/m3]	mass density, 303.15 K [kg/m3]	mass density, 308.15 K [kg/m3]	mass density, 313.15 K [kg/m3]	viscosity, 293.15 K [mPa·s]	viscosity, 298.15 K [mPa·s]	viscosity, 303.15 K [mPa·s]	viscosity, 308.15 K [mPa·s]	viscosity, 313.15 K [mPa·s]
m1 = 0.1001	1001.16	999.95	998.49	996.82	994.94	–	–	–	–	–
m1 = 0.147	1002.53	1001.29	999.82	998.13	996.21	–	–	–	–	–
m1 = 0.2001	–	–	–	–	–	1.053	0.935	0.837	0.755	0.685
m1 = 0.202	1004.12	1002.86	1001.37	999.64	997.69	–	–	–	–	–
m1 = 0.25	1005.5	1004.22	1002.71	1000.97	999	–	–	–	–	–
m1 = 0.2999	–	–	–	–	–	1.077	0.956	0.856	0.772	0.7
m1 = 0.3023	1006.99	1005.69	1004.16	1002.4	1000.43	–	–	–	–	–
m1 = 0.3496	1008.33	1007.01	1005.48	1003.7	1001.71	–	–	–	–	–
m1 = 0.3996	–	–	–	–	–	1.102	0.978	0.875	0.789	0.715
m1 = 0.4028	1009.83	1008.48	1006.94	1005.13	1003.12	–	–	–	–	–
m1 = 0.5002	–	–	–	–	–	1.126	0.999	0.894	0.806	0.73
m1 = 0.5014	1012.57	1011.2	1009.63	1007.79	1005.76	–	–	–	–	–
m1 = 0.5514	1013.95	1012.56	1010.97	1009.12	1007.08	–	–	–	–	–
m1 = 0.6	–	–	–	–	–	1.15	1.02	0.912	0.822	0.745
m1 = 0.6018	1015.33	1013.93	1012.34	1010.48	1008.4	–	–	–	–	–
m1 = 0.6087	1015.52	1014.11	1012.53	1010.65	1008.61	–	–	–	–	–
m1 = 0.6491	1016.62	1015.21	1013.61	1011.72	1009.65	–	–	–	–	–
m1 = 0.7	–	–	–	–	–	1.173	1.04	0.93	0.838	0.759
